One data set deals with T1, human GlyT2 (Homo sapiens, UniProt Q9Y345).
T1 construct: expressed in transfected cells
T1 sequence (Q9Y345 1-797): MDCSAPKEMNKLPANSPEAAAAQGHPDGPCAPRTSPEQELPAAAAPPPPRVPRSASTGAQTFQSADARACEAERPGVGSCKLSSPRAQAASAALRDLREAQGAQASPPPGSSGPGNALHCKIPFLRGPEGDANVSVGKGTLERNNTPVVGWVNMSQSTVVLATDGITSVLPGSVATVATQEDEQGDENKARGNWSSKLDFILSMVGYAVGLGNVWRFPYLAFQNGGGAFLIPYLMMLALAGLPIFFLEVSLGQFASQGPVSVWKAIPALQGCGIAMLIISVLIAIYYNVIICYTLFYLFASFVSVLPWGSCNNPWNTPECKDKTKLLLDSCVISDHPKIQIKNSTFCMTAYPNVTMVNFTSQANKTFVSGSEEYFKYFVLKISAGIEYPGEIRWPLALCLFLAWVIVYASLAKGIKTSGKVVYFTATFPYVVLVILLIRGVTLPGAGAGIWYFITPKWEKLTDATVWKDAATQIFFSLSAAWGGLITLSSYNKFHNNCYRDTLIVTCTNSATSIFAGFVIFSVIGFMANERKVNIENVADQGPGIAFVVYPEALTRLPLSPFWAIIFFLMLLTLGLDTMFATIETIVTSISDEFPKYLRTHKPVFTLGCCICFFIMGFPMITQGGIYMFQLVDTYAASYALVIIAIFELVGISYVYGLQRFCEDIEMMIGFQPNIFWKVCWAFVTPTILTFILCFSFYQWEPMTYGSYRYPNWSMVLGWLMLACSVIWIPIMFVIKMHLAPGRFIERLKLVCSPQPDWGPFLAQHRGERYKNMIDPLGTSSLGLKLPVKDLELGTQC
Nature of the data set: Glycine uptake assay (GlyT2 assay). Type of data set: cell-based. To be noted: HEK 293 cells stably transfected with human GlyT2; 14C-glycine 10 μM; room temperature 2-3 hours. As for the experimental part:
Experiment 1 Glycine uptake assay (GlyT2 and GlyT1 assay)
Inhibitory activity on GlyT2 and GlyT1 was examined by glycine uptake assays using cells expressing GlyT2 or GlyT1, as described in the literatures, Caulfield et al. (J. Med. Chem., 2001, 44, 2679-2682), Williams et al. (Anal. Biochem., 2003, 321, 31-37, etc.), and/or Morrow et al. (FEBS Letters, 1998, 439: 334-340).
Briefly, the assays were performed as follows.
HEK 293 cells stably transfected with either human GlyT2 or human GlyT1b were used. The cells were grown in 96-well Cytostar-T™ scintillating microplates (20,000-40,000 cells/well) overnight before removal of culture medium and addition of HEPES buffered saline containing glycine (10 μM) labeled with ^14C and varying concentrations of test compounds.
Plates were incubated at room temperature for 2-3 hours, and then, the plates were counted in a plate counter.
Data were analyzed by the sigmoid dose-response curve fitting to produce IC50 (the concentration of test compound producing 50% inhibition) values.

Molecules are shown by their SMILES.

As for `CCC[C@H](NC(=O)c1cc(OC)c(OCc2ccccc2)c(OC)c1)C(=O)NCC1(N(C)C)CCCC1` [Example 1.026], the IC50 against human GlyT2 is < 10 nM.

For the compound `CCCCCCOc1ccc(C(=O)N[C@@H](CCC)C(=O)NCCN(C)C)cc1` [Example 1.001, N-[(1S)-1-[[[2-(dimethylamino)ethyl]amino]carbonyl]butyl]-4-(hexyloxy)benzamide], the melting point was 103 to 104 °C.
